According to BigSolDB 2.1:

N[C@@H](Cc1ccccc1)C(=O)O
solubility (mole fraction)
Settings | 283.15 K | 288.15 K | 293.15 K | 298.15 K | 303.15 K | 308.15 K | 313.15 K | 318.15 K | 323.15 K | 328.15 K
in 1,4-dioxane | – | 1.86e-05 | 2.37e-05 | 3.09e-05 | 3.5e-05 | 3.9e-05 | 4.53e-05 | 5.92e-05 | 8.28e-05 | 0.000118
in acetone | 8.09e-05 | 0.000104 | 0.000131 | 0.000153 | 0.000176 | 0.000226 | 0.000293 | 0.00033 | 0.000375 | –
in acetonitrile | 7.9e-06 | 9.3e-06 | 1.12e-05 | 1.55e-05 | 1.8e-05 | 2.4e-05 | 3.67e-05 | 4.72e-05 | 5.69e-05 | –
in ethanol | 0.000125 | 0.000136 | 0.000151 | 0.000165 | 0.000177 | 0.000191 | 0.000208 | 0.000222 | 0.000231 | –
in ethyl acetate | 1.33e-05 | 1.49e-05 | 1.95e-05 | 2.06e-05 | 2.37e-05 | 3.38e-05 | 5.38e-05 | 9.29e-05 | 0.000194 | –
in isobutanol | 7.49e-05 | 7.77e-05 | 9.15e-05 | 0.000124 | 0.000158 | 0.000187 | 0.000224 | 0.000278 | 0.000323 | –
in isopropanol | 4.14e-05 | 5.16e-05 | 6.41e-05 | 7.29e-05 | 9.54e-05 | 0.00011 | 0.000122 | 0.00015 | 0.000178 | –
in methanol | 0.000742 | 0.000807 | 0.000866 | 0.000937 | 0.000996 | 0.00105 | 0.00112 | 0.00119 | 0.00126 | –
in methyl acetate | 4.3e-06 | 8.5e-06 | 1e-05 | 1.49e-05 | 1.93e-05 | 3.27e-05 | 4.41e-05 | 5.46e-05 | 6.4e-05 | –
in n-butanol | 5.9e-06 | 8.4e-06 | 9.8e-06 | 2.2e-05 | 3.48e-05 | 4.72e-05 | 5.85e-05 | 8.5e-05 | 0.000104 | –
in n-propanol | 2.83e-05 | 2.99e-05 | 3.34e-05 | 4.63e-05 | 5.58e-05 | 6.44e-05 | 8.96e-05 | 0.000141 | 0.000187 | –
in water | 0.00274 | 0.00289 | 0.00307 | 0.00321 | 0.00342 | 0.0036 | 0.00379 | 0.00404 | 0.00433 | –
